Experimental data as given in patent publication US11136583B2, “Methods and materials for treating cancer” (Mayo Foundation for Medical Education and Research, priority 2017, dated 2021).

How the values were obtained:
UFL1 = experiment: Ufmylation level in U2OS cells by western blot with UFM1 antibody; type: cell-based
Method: FIG. 10. U2OS cells were treated with AZD6244 or GDC0623. 48 hours later, cell were harvested, lysed, and analyzed by western blot with the indicated antibodies.
(§1) U2OS cells were plated in 6 well plates, and MEK1 inhibitors (AZD6244 or GDC0623) were added to wells with 10 μM final concentration and incubated for 48 hours. AZD6244 was purchased from Selleckchem. In some cases, cells were also irradiated with IR (10 Gy IR for 30 minutes).
(§2) Cells were washed once with PBS and lysed with SDS lysis buffer. The samples were separated by SDS-PAGE following three washes with NETN buffer. Western blots were carried out following standard procedures.
To identify an inhibitor of UFL1 activity that induced a significant decrease of ufmylation, cells were treated with inhibitors and were analyzed by western blot using UFM1 antibody to detect the ufmylation level in the cells.

[1] = system: Protein kinase ataxia-telangiectasia mutated (ATM) signaling; experiment: ATM signaling in irradiated U2OS cells by western blot; type: cell-based; settings: U2OS cells pretreated 6 hours, then 10 Gy IR, harvested 30 minutes after IR (FIG. 11)
Method: FIG. 11. U2OS cells were pretreated with AZD6244. 6 hours later, cells were treated with 10 Gy IR. 30 minutes after ionizing radiation, cells were harvested, lysed, and analyzed by western blot with the indicated antibodies.
as §1, §2

## Cn1cnc2c(F)c(Nc3ccc(Br)cc3Cl)c(C(=O)NOCCO)cc21 [AZD6244, selumetinib]
UFL1
  UFL1 inhibition (conclusion from ufmylation and ATM signaling western blots): inhibits UFL1
UFL1; 10 μM, 48 hours, western blot with UFM1 antibody (FIG. 10)
  ufmylation level in the cells: greatly suppressed
[1]
  ATM signaling: greatly suppressed
